{
  "source": "patent US10301308B2",
  "about": "“Azetidine derivatives for tau imaging” (Eli Lilly and Company, priority 2015, dated 2019)",
  "key": {"[1]": {"molecular_target": "PHF (tau from Alzheimer's disease donors) (Homo sapiens, UniProt P10636)", "sequence (P10636 623-708 limits assumed)": "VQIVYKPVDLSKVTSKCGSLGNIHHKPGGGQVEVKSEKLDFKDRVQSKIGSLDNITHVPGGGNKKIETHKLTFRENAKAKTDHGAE", "experiment": "Saturation binding of radiolabeled compound to PHF (Kd determination)", "conditions": "tau obtained from donors with Alzheimer's disease", "from_the_text": "Purified, soluble PHF is isolated from AD brain tissue using a protocol modified from the procedure described by Jicha, et al. (G. A. Jicha, A. O'Donnell, C. Weaver (1999) “Hierarchical phosphorylation of recombinant tau by the paired-helical filament-associated protein kinase is dependent on cyclic AMP-dependent protein kinase” J Neurochem. 72(1):214). Briefly, AD cortex is homogenized using a handheld Kinematica Polytron, followed by high pressure batch—gas expansion using a Parr Cell disruption bomb. Crude homogenate is centrifuged at 28 kg to pellet cell debris. […]\nThe dissociation constant [Kd] for the radiolabeled compound 3-(3-[18F]-fluoroazetidin-1-yl)-8-methylbenzo[4,5]imidazol[1,2-a]pyridine is determined by saturation binding, in which the total and nonspecific binding of the radioligand are measured at various radioligand concentrations. […] After incubation for 1.5 h at 37° C., the bound radioactivity is harvested by vacuum filtration onto Millipore MultiScreenHTS 96-well glass fiber FB filter plates, using a Millipore MultiScreenHTS Vacuum Manifold, followed by five washes with PBS. Filters containing bound 3-(3-[18F]-fluoroazetidin-1-yl)-8-methylbenzo[4,5]imidazo[1,2-a]pyridine are assayed for radioactivity in a Wizard 2480 automatic gamma-counter [Perkin Elmer]. […]"}, "[2]": {"tested_on": "native tau aggregates vs native β-amyloid aggregates in human brain sections", "experiment": "Autoradiography selectivity towards tau versus β amyloid in AD human brain tissue", "type": "binding", "from_the_text": "Based on the anti-tau and anti-amyloid immunostaining results of brain sections, three groups of human brain sections are selected for autoradiography experiments to determine the native tau-binding selectivity of 3-(3-[18F]-fluoroazetidin-1-yl)-8-methylbenzo[4,5]imidazo[1,2-a]pyridine. Group A are tau-rich AD brain slices (labeled as Tau+Aβ+), Group B are tau-poor AD brain slices (marked as Tau-Aβ+), and Group C are Tau-Aβ− normal brain slices. […] The human AD brain sections in Group B are #33562, #32656, #33998, #35682, and #33563. The normal human brain sections in group C are #29092 and #32566. Tissue slices from the same donors are used to calculate selectivity for all three compounds for testing according to Assay Example 5. Autoradiography is performed for each of these three groups of brains on adjacent 10 μm sections with the amyloid tracer [18F]W372 to quantify the β-amyloid burden. [18F]W372 is a selective amyloid binding tracer discovered by Siemens and evaluated under IND 105173. Sections are covered with 0.5 ml of 3-(3-[18F]-fluoroazetidin-1-yl)-8-methylbenzo[4,5]imidazo[1,2-a]pyridine (in 2.5:2.5:95 DMSO:EtOH:1×PBS, about 20 μCi/slide) and incubated for 1.5 hrs. Then successive washing cycles (1 min PBS, 2 min 30% EtOH/PBS, 2 min 70% EtOH/PBS, 1 min PBS) are employed to remove any unbound tracer. The sections are air dried, placed on a phosphorimaging plate (Fuji IP plate), and exposed overnight. The IP plate is read using a GE Healthcare Life Sciences Typhoon FLA 7000 Phosphorimager. The signal intensity of the grey matter is measured using Fujifilm Multi Gauge software. After subtracting the background signal (signal in the cortex region of Group C), the signal of individual sections of Group A and B are normalized with corresponding signal from autoradiography of the respective adjacent sections with [18F]W372. The calculations are based on Group B brain sections #32656 and #33998, which have undetectable tau pathology by immunohistochemistry. The normalized signal for 3-(3-[18F]-fluoroazetidin-1-yl)-8-methylbenzo[4,5]imidazo[1,2-a]pyridine in Group B brain sections is the relative signal level of 3-(3-[18F]-fluoroazetidin-1-yl)-8-methylbenzo[4,5]imidazo[1,2-a]pyridine to [F-18]W372 resulting from binding to native β-amyloid aggregates. The binding level of 3-(3-[18F]-fluoroazetidin-1-yl)-8-methylbenzo[4,5]imidazo[1,2-a]pyridine to native tau-aggregates in Group A sections is estimated by subtracting the amount of the total signal attributable to binding to 3-amyloid (calculated by multiplying the total signal from [18F]W372 binding to β-amyloid in the adjacent section by the relative signal of 3-(3-[18F]-fluoroazetidin-1-yl)-8-methylbenzo[4,5]imidazo[1,2-a]pyridine to [18F]W372 determined from the Group B sections). The resulting difference is then divided by the signal attributable to binding to β-amyloid to estimate the selectivity of 3-(3-[18F]-fluoroazetidin-1-yl)-8-methylbenzo[4,5]imidazo[1,2-a]pyridine. […] The selectivity of 3-(3-[18F]-fluoroazetidin-1-yl)-8-methylbenzo[4,5]imidazo[1,2-a]pyridine binding to native tau aggregates vs. binding native β-amyloid aggregates is reflected by the ratio of Group A (Tau+Aβ+) signal to the signal of the brain sections #32656 and #33998."}, "[3]": {"tested_on": "normal human brain tissue", "experiment": "Autoradiography on normal versus AD human brain slices, less stringent or alcohol free washes", "type": "binding", "from_the_text": "In order to show the absence of non-tau binding, autoradiography scans are obtained from 3-(3-[18F]-fluoroazetidin-1-yl)-8-methylbenzo[4,5]imidazo[1,2-a]pyridine on normal human brain tissue. The experimental procedure is the same as provided in Example 5 except that only 20 uCi of 18F-ligand is applied to the tissue slices and the washing conditions are less stringent. […] The autoradiography is further carried out with no ethanol in the washing solutions."}},
  "data": [
    {"molecule": "Cc1ccc2nc3cc(N4CC([18F])C4)ccn3c2c1", "note": "[Compound 8, 3-(3-[18F]-fluoroazetidin-1-yl)-8-methylbenzo[4,5]imidazo[1,2-a]pyridine]", "values": [
      {"measurement": "Kd", "setting": "[1]", "result": "850 ± 20", "unit": "pM"},
      {"measurement": "selectivity ratio for Tau:Aβ", "setting": "[2]; 5 Tau+Aβ+ and 2 Tau-Aβ+ brain specimens", "result": "approximately 26.6±4.5"},
      {"measurement": "autoradiography signal on grey matter (cortex region)", "setting": "[2]; Group A (Tau+Aβ+) sections", "result": "Strong signal"},
      {"measurement": "autoradiography signal on cortex regions", "setting": "[2]; Group B (Tau-Aβ+) sections", "result": "weak or no signal"},
      {"measurement": "autoradiography signal", "setting": "[2]; Group C (Tau-Aβ−) normal brain sections", "result": "No autoradiography signal"},
      {"measurement": "grey matter to white matter (GM/WM) signal ratio", "setting": "[2]; autoradiography, Tau+Aβ+ brain specimens", "result": "approximately 17.3±1.7"},
      {"measurement": "selectivity of binding to native tau aggregates vs native β-amyloid aggregates", "setting": "[2]; grey matter region of human AD brains", "result": "approximately 27 fold"},
      {"measurement": "autoradiography signal on normal brain sections, grey vs white matter", "setting": "[2]; normal brain sections", "result": "weak and even"},
      {"measurement": "blocking of signal in AD brain tissue", "setting": "[3]; AD30121, frontal cortex", "result": "can be blocked by non-radiolabelled compound or with the known tau PET tracer T807"},
      {"measurement": "autoradiography signal in normal cortical or white matter tissue compared to [18F]T807", "setting": "[3]; no ethanol in the washing solutions", "result": "much lower autoradiography signal"},
      {"measurement": "radioactivity signal in normal tissue", "setting": "[3]; washes PBS, 10% ethanol/PBS, 30% ethanol/PBS, PBS, vs AD brain tissue", "result": "considerably lower than in AD brain tissue"}
    ]}
  ]
}
